The numbers were not newly measured in patent US8802142B2, “Pharmaceutical compositions comprising levetiracetam and process for their preparation” (UCB Pharma, S.A., priority 2005, dated 2014), which cites them from elsewhere.

For the data set the following is noted: A. J. Gower et al., Eur. J. Pharmacol., 222, 1992, 193-203.

For `CC[C@@H](C(N)=O)N1CCCC1=O` [Levetiracetam, (S)-(−)-α-ethyl-2-oxo-1-pyrrolidine acetamide], the “activity in the treatment of epilepsy” value is on record as “effective”.

For “(R)-(−)-α-ethyl-2-oxo-1-pyrrolidine acetamide”, the “activity in the treatment of epilepsy” value is “completely lacks activity”.
